Measured values reported in patent US20240342198A1, “TREATMENT OF IR[…] SUBJECTS WITH AUTISM SPECTRUM DISORDERS WITH MODERATE TO SEVERE ANXIETY AND/OR SOCIAL AVOIDANCE” (ZYNERBA PHARMACEUTICALS, INC., priority 2021, published 2024).

Assays:
[1] = tested on: patients with FXS and comorbid ASD; test: Pooled placebo-controlled data: Week 12 change in ABC-C Irritability, 156 subjects; type: in vivo, human; conditions: subgroup comparison
Excerpt: The data collected from the studies presented herein, and other similar studies were pooled together and analyzed. […] The subjects had moderate to severe symptoms of ASD (ADOS-2, comparison score greater than, or equal to, 5). The data presented in Table 2 is the Week 12 change in ABC-C Irritability of all patients. In previous studies (such as presented in Example 1, Table 1) the data was enriched by removing the non-completers from the analysis and only presenting data from the completers.

[2] = tested on: children and adolescents with autism spectrum disorder; test: BRIGHT study: open-label safety, tolerability and efficacy study of ZYN002 transdermal gel, 14 weeks; type: in vivo, human; conditions: subgroup comparison
Method: An exploratory open-label safety, tolerability and efficacy study of Zygel™ ZYNO02 transdermal gel to 37 children and adolescents with autism spectrum disorder was conducted. The patient population (ages 4 through 17 years old) were predominantly moderate-to-severe ASD patients. ASD was confirmed by Diagnostic and Statistical Manual of Mental Disorders, 5th edition (DSM-5) diagnostic criteria to assess the safety and efficacy of ZYNO02 in treating ASD-related behaviors as measured by a variety of efficacy assessments. These included the Aberrant Behavior Checklist-Community (ABC-C); the Autism Diagnostic Observation Schedule®, 2nd Edition (ADOS-2); and the Parent Rated Anxiety Scale-Autism Spectrum Disorder (PRAS-ASD). ZYNO02 was administered to patients with moderate-to-severe symptoms of ASD as add-on therapy to their standard of care.
The majority of the patients were male (92%) with a mean age of 9.2 years. […] The majority of patients had moderate or severe ASD at baseline as measured by the ADOS®-2 comparison score (94%) and Diagnostic and Statistical Manual of Mental Disorders, 5th edition, severity levels (92%). […]
The trial evaluated multiple efficacy assessments, including the ABC-C, PRAS-ASD, Autism Parenting Stress Index, Autism Impact Measure (AIM), and Clinical Global Impression-Severity (CGI-S) and Improvement (CGI-I). […]

SMILES: C=C(C)C1CCC(C)=CC1c1c(O)cc(CCCCC)cc1O (centres unmarked) [CBD, 2-[3-methyl-6-(1-methylethenyl)-2-cyclohexen-1-yl]-5-pentyl-1,3-benzenediol]
- improvement in irritability, ABC-CFXS Social Avoidance score > 7 compared to ≤ 7 [1]: twice as much improvement in irritability
- improvement in irritability, PRAS score > 37 compared to ≤ 37 [2]: twice as much improvement in irritability
